IC50 data for nine molecules are collected here from US12351576B2, “FGFR inhibitor, preparation method therefor and application thereof” (Abbisko Therapeutics Co., Ltd., priority 2018, dated 2025).

One assay concerns the target FGFR2 (Homo sapiens (Human), UniProt P21802). As to the kind of experiment: In vitro biochemical kinase assay (Caliper Assay), FGFR2. As to conditions: enzyme 2.5 nM, ATP 1 μM, 40 minutes; read-out: Enzymatic activity IC50(nM) FGFR2. As for the experimental part:
(§1) I. In Vitro Biochemical Kinase Assay of FGFR 1˜3
(§2) Caliper Assay was used in the present invention to determine the inhibitory activities of the compounds against FGFR1, FGFR2, and FGFR3. The specific experimental procedure was as follows: • 1. The kinase reaction in the present invention was carried out in 384-well plates, the kinase(Carna) at a certain concentration and ATP at a certain concentration and 1 μM of peptide FAM-P22 (GL Biochem, Cat. No. 112393)) was incubated to react for a certain time at 28° C. in a reaction system consisting of 50 mM HEPES, […], 0.0015% Brij-35 and basic kinase buffer; for FGFR1, the enzyme concentration was 0.25 nM and ATP concentration was 382 μM and the reaction time was 20 minutes; for FGFR2, the enzyme concentration was 2.5 nM, ATP concentration was 1 μM, and the reaction time was 40 minutes; for FGFR3, the enzyme concentration was 8 nM, ATP concentration was 4.7 μM, and the reaction time was 30 minutes: • 2. The reaction was terminated with a stop solution (100 mM HEPES, pH 7.5, 0.2% Caliper coating, reagent, 50 mM EDTA and 0.015% Brij35); • 3. The plate with the terminated kinase reaction was transferred to the Caliper workstation to read the data; • 4. the phosphorylated and unphosphorylated peptides were separated by the Caliper microfluid migration shift technique, and the analyte was transferred by a constant buffer flow through the chip, the migration of the substrate peptide was monitored by the labeled fluorescent signal, and the kinase activity was calculated by the amount of the phosphate-based peptide formed. • 5. IC50 was determined by non-linear regression analysis of percent inhibition at different concentration level of the compound.

The subject of assay [1] is Snu-16 gastric cancer cells (FGFR2 gene amplification). Kind of assay: Cell proliferation assay (Cell Titer Glo), Snu-16. The class given is cell-based. As to conditions: Homo sapiens, SNU-16, 72 h, Snu-16 cells, 3 days, CTG, read-out: Cellular IC50 (nM) Sun16. As for the experimental part: (§3) II. Cell Proliferation Assay (Cell Titer Glo(CTG) Assay)
(§4) The FGFR signal pathway dependent inhibitory effect of the compound in the present invention on cell proliferation was assessed by survival test using CTG reagent (Promega, 4G7573). Cell lines representative of a variety of tumor types, including H1581 lung cancer cells (FGFR1 gene amplification), Snu-16 gastric cancer cells (FGFR2 gene amplification), and RT112 bladder carcinoma cells (FGFR3-TACC3 fusion) from Nanjing Cobioer Biosciences, were selected for the assay. The specific experimental procedure was as follows: • 1. 90 μL of cells were seeded into a 96-well plate processed with TCM (Costar 43904), and incubated overnight at 37° C. in a 5% CO2 incubator; afterwards, 10 μL of the culture medium containing the compound at 10 fold of its final concentration was added; • 2. The dose-dependent effect was evaluated by a serial dilution of the test compound, starting from 10 μM or a lower concentration. • 3. The cells were incubated at 37° C. under 5% C02 for 3 days, then added 50 μL CTG, and read the data with Envision (Pelkin Elmer) to quantify the ATP level in the cells. The ATP levels in cells with treatment of inhibitor at a variety of concentrations were compared with those in cells of the control group (in which DMSO was added into the medium) to evaluate the compound percent inhibition of cell proliferation/survival. • 4. The compound half growth inhibitory concentration (IC50) was determined in Graphpad Prism by 4-parameter curve fitting.
Background: ATP-based viability assays read luminescence as a measure of living cells.

Assay [2] deals with H1581 lung cancer cells (FGFR1 gene amplification). Kind of assay: Cell proliferation assay (Cell Titer Glo), H1581. The class given is cell-based. As to conditions: 3 days, CTG, read-out: Cellular IC50 (nM) H1581. As for the experimental part:
as §3, §4

A further assay addresses FGFR3 (Homo sapiens (Human), UniProt P22607). Kind of assay: In vitro biochemical kinase assay (Caliper Assay), FGFR3. As to conditions: enzyme 8 nM, ATP 4.7 μM, 30 minutes; read-out: Enzymatic activity IC50(nM) FGFR3. As for the experimental part:
as §1, §2

In the next assay the target is FGFR1 (Homo sapiens (Human), UniProt P11362). Kind of assay: In vitro biochemical kinase assay (Caliper Assay), FGFR1. To be noted: enzyme 0.25 nM, ATP 382 μM, 20 minutes; read-out: Enzymatic activity IC50(nM) FGFR1. As for the experimental part:
as §1, §2

Assay [3] concerns RT112 bladder carcinoma cells (FGFR3-TACC3 fusion). As to the kind of experiment: Cell proliferation assay (Cell Titer Glo), RT112. Format: cell-based. To be noted: Homo sapiens, RT-112, 72 h, 3 days, CTG, read-out: Cellular IC50 (nM) RT112. Here is the method: as §3, §4

Like-named read-outs stand apart in the source and are kept apart here.

Sequence of FGFR2 (P21802 22-821): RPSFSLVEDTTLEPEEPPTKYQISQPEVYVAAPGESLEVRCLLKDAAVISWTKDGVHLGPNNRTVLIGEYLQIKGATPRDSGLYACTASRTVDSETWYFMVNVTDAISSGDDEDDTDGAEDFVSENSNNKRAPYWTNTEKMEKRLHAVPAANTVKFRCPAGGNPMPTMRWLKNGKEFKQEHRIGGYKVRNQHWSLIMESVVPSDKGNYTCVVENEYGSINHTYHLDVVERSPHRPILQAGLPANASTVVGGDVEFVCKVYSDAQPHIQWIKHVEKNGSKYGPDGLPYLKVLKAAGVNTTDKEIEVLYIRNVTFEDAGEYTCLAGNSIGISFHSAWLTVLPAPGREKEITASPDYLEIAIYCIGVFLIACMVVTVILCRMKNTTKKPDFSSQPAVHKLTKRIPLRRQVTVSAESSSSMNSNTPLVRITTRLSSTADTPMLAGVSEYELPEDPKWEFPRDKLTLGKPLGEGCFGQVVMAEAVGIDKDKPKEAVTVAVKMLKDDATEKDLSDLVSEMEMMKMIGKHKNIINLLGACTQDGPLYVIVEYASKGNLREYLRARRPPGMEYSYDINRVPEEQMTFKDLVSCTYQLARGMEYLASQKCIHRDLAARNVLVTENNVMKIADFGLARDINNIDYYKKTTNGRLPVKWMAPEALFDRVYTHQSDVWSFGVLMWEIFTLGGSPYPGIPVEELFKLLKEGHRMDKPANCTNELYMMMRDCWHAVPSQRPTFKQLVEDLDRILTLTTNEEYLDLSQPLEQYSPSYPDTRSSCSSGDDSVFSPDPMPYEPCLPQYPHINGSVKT
Sequence of FGFR3 (P22607 23-806): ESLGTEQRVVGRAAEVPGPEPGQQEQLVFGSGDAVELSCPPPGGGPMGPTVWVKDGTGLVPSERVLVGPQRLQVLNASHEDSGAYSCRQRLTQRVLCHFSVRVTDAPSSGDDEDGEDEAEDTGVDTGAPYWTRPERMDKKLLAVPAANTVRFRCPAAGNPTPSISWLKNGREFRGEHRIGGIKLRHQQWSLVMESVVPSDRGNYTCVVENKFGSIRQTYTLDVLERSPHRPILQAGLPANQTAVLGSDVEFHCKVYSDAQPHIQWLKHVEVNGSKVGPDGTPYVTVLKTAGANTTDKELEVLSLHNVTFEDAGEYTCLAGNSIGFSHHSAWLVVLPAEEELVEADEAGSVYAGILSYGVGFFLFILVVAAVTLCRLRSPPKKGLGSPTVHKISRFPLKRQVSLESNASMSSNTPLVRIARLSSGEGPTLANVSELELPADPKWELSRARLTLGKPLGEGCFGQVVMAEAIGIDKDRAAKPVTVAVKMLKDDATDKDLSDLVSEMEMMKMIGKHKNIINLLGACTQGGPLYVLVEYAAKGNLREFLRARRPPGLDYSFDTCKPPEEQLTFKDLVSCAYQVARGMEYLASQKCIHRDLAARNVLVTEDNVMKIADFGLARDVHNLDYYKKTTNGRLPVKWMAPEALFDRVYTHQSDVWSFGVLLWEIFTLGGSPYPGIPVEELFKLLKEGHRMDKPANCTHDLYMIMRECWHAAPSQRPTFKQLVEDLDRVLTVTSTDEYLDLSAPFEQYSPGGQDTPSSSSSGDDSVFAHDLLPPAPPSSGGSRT
Sequence of FGFR1 (P11362 22-822): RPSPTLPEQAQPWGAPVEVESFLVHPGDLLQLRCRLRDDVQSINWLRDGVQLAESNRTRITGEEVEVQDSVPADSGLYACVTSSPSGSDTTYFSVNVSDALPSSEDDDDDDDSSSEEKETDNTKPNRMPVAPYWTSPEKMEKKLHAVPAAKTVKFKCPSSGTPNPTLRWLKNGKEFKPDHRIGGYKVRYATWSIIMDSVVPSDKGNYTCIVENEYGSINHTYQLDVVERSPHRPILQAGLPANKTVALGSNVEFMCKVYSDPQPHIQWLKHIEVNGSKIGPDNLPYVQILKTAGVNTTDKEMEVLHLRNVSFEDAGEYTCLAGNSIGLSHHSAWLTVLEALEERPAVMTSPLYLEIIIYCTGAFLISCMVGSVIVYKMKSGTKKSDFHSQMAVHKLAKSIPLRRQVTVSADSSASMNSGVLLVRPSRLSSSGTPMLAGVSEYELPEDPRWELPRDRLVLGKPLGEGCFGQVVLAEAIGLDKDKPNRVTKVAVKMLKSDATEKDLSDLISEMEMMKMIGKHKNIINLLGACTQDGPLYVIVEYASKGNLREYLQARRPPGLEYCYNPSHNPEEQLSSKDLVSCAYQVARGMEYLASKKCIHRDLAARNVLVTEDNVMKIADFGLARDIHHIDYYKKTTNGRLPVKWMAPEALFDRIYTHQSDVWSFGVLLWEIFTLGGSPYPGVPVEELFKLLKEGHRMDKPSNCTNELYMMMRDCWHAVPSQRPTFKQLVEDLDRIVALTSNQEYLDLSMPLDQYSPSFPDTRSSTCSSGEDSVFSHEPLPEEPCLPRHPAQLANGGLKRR

What is called IC50 is the midpoint of a concentration-inhibition curve. For the molecule `COc1cc(OC)c(Cl)c(-c2cc3cnc(-c4cnn(C)c4)cc3n(C3CCOC3)c2=O)c1Cl` (stereo in doubt) [Example 21, (R)-3-(2,6-dichloro-3,5-dimethoxyphenyl)-7-(1-methyl-1H-pyrazol-4-yl)-1-(tetrahydrofuran-3-yl)-1,6-naphthyridin-2(1H)-one], the IC50 is ≤ 5 nM on FGFR2; 5 to 10 nM in assay [1]; 50 to 500 nM in assay [2]; ≤ 5 nM at FGFR3; 5 to 10 nM on FGFR1.

With `COc1cc(OC)c(Cl)c(-c2cc3cnc(-c4cnn(C)c4)cc3n(C)c2=O)c1Cl` [Example 2, 3-(2,6-dichloro-3,5-dimethoxyphenyl)-1-methyl-7-(1-methyl-1H-pyrazol-4-yl)-1,6-naphthyridin-2(1H)-one], the IC50 in assay [3] fell in the range of 50 to 500 nM; at FGFR2 it was 5 to 10 nM; in assay [1], 10 to 50 nM; in assay [2] (Homo sapiens, NCI-H1581, 72 h), 50 to 500 nM; at FGFR3, 50 to 500 nM; on FGFR1, 10 to 50 nM.

Regarding `CCn1c(=O)c(-c2c(Cl)c(OC)cc(OC)c2Cl)cc2cnc(-c3cnn(CCN4CCOCC4)c3)cc21` [Example 10, 3-(2,6-dichloro-3,5-dimethoxyphenyl)-1-ethyl-7-(1-(2-morpholinoethyl)-1H-pyrazol-4-yl)-1,6-naphthyridin-2(1H)-one], the IC50 in assay [3] was 10 to 50 nM; on FGFR2, ≤ 5 nM; in assay [1], 10 to 50 nM; in assay [2] (Homo sapiens, NCI-H1581, 72 h), 50 to 500 nM; on FGFR3, ≤ 5 nM; on FGFR1, 10 to 50 nM.

For the molecule `COc1cc(OC)c(Cl)c(-c2cc3cnc(-c4cnn(CCN5CCOCC5)c4)cc3n(C)c2=O)c1Cl` [Example 15, 3-(2,6-dichloro-3,5-dimethoxyphenyl)-1-methyl-7-(1-(2-morpholinoethyl)-1H-pyrazol-4-yl)-1,6-naphthyridin-2(1H)-one], the IC50 fell in the range of 50 to 500 nM in assay [3]; 5 to 10 nM on FGFR2; 10 to 50 nM in assay [1]; 50 to 500 nM in assay [2] (Homo sapiens, NCI-H1581, 72 h); 50 to 500 nM at FGFR3; 50 to 500 nM at FGFR1.

Regarding `COc1cc(OC)c(Cl)c(-c2cc3cnc(-c4ccc(C5(C#N)CCC5)nc4)cc3n(C3CCOC3)c2=O)c1Cl` (centres unmarked) [Example 16, 1-(5-(3-(2,6-dichloro-3,5-dimethoxyphenyl)-2-oxo-1-(tetrahydrofuran-3-yl)-1,2-dihydro-1,6-naphthyridin-7-yl)pyridin-2-yl)cyclobutane-1-carbonitrile], the IC50 was 50 to 500 nM in assay [3]; 10 to 50 nM at FGFR2; 10 to 50 nM in assay [1]; 50 to 500 nM in assay [2] (Homo sapiens, NCI-H1581, 72 h); 50 to 500 nM on FGFR1.

Consider `COc1cc(OC)c(F)c(-c2cc3cnc(-c4cnn(C)c4)cc3n(C3CCOC3)c2=O)c1F` (centres unmarked) [Example 28, 3-(2,6-difluoro-3,5-dimethoxyphenyl)-7-(1-methyl-1H-pyrazol-4-yl)-1-(tetrahydrofuran-3-yl)-1,6-naphthyridin-2(1H)-one], for which the IC50 in assay [3] is ≤ 5 nM; on FGFR2 it was ≤ 5 nM; in assay [1], ≤ 5 nM; in assay [2] (Homo sapiens, NCI-H1581, 72 h), 10 to 50 nM; at FGFR1, ≤ 5 nM.

Turning to `COc1cc(OC)c(F)c(-c2cc3cnc(-c4ccc(C5(C#N)CCC5)nc4)cc3n(C3CCOC3)c2=O)c1F` (centres unmarked) [Example 32, 1-(5-(3-(2,6-difluoro-3,5-dimethoxyphenyl)-2-oxo-1-(tetrahydrofuran-3-yl)-1,2-dihydro-1,6-naphthyridin-7-yl)pyridin-2-yl)cyclobutane-1-carbonitrile], the IC50 was 2.5 nM in assay [3] (numeric values); ≤ 5 nM on FGFR2; 10.7 nM in assay [1] (numeric values); 50 to 500 nM in assay [2] (Homo sapiens, NCI-H1581, 72 h); 5 to 10 nM on FGFR1.

With `COc1cc(OC)c(F)c(-c2cc3cnc(-c4cnn(CCN5CCOCC5)c4)cc3n(C3CCCC3)c2=O)c1F` [Example 34, 1-cyclopentyl-3-(2,6-difluoro-3,5-dimethoxyphenyl)-7-(1-(2-morpholinoethyl)-1H-pyrazol-4-yl)-1,6-naphthyridin-2(1H)-one], the IC50 in assay [3] is ≤ 5 nM; in assay [1] it was ≤ 5 nM; in assay [2] (Homo sapiens, NCI-H1581, 72 h) it was 10 to 50 nM.

Turning to `COc1cc(OC)c(F)c(-c2cc3cnc(-c4cnn(CCN5CCOCC5)c4)cc3n(C3CCOC3)c2=O)c1F` (centres unmarked) [Example 35, 3-(2,6-difluoro-3,5-dimethoxyphenyl)-7-(1-(2-morpholinoethyl)-1H-pyrazol-4-yl)-1-(tetrahydrofuran-3-yl)-1,6-naphthyridin-2(1H)-one], the IC50 in assay [3] is ≤ 5 nM; in assay [1], 5 to 10 nM; in assay [2] (Homo sapiens, NCI-H1581, 72 h), 50 to 500 nM.
